This note sets out measurements from paper PMC4763008, “Selective Inhibition of Bakuchicin Isolated from Psoralea corylifolia on CYP1A in Human Liver Microsomes” (Evidence-based Complementary and Alternative Medicine : eCAM, 2016).

Entries after “also recorded” stand apart in the source; their conditions may differ.

For one data set, the target named is T1, CYP1A (Homo sapiens, UniProt P05177).
T1 sequence (P05177 2-516): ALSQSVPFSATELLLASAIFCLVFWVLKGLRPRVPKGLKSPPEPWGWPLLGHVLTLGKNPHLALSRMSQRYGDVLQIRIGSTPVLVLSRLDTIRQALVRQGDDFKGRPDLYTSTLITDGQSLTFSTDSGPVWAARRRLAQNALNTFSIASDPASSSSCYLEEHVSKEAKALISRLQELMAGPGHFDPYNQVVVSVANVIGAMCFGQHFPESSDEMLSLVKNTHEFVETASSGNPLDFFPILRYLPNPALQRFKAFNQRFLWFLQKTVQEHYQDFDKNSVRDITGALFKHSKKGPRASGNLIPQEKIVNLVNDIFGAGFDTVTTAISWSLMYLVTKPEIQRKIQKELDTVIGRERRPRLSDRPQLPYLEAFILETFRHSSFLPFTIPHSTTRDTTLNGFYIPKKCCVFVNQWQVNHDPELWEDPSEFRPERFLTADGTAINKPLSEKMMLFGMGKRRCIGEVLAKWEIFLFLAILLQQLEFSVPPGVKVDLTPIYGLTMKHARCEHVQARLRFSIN
The data set is described as follows: Inhibition mode on CYP1A-catalyzed phenacetin O-deethylation in HLMs (Lineweaver-Burk and secondary plot). It is filed as in vitro ADME. The conditions noted are these: for inhibition mechanism on CYP1A in HLMs: pooled HLMs, phenacetin O-deethylation, Lineweaver-Burk plot / IC50 shift. Here is the method: To characterize the inhibition mode on CYP1A by bakuchicin, 0.5 mg/mL of HLMs was incubated with bakuchicin at 0, 0.2, 0.4, and 0.8 μM in 0.1 M potassium phosphate buffer (pH 7.4) for 60 min at 37°C. Those were terminated by adding 100 μL acetonitrile containing 0.1% formic acid and 2.5 μL of internal standard solution (5 μM reserpine) in methanol. After mixing and centrifuging at 13,000 ×g for 12 min, a 5 μL aliquot was injected onto a C18 column for LC-MS/MS analysis. Phenacetin was used as a probe substrate at 20, 40, or 80 μM. The inhibition pattern was investigated by Michaelis-Menten and its secondary plotting.
(§1) All measurements were performed using LC-MS/MS in multiple reaction monitoring mode. LC-MS/MS was performed using an Accela™ LC system coupled to a TSQ Vantage triple quadrupole mass spectrometer (Thermo Fisher Scientific Inc., USA) equipped with a HESI-II Spray source. Electrospray ionization was performed in positive mode at a spray voltage of 3,500 V (except for the detection of 6-hydroxy chlorzoxazone). Nitrogen was used as a sheath and auxiliary gas at optimum values of 45 and 20 (arbitrary units), respectively. Vaporizer and capillary temperatures were 150 and 300°C, respectively. For LC analysis an Inertsil® ODS-2 (3 μm, 2.1 × 150 mm) column (GL Sciences Inc., Torrance, CA) was used. The mobile phase consisted of acetonitrile (mobile phase A) and water (mobile phase B), both of which contained 0.1% formic acid, at a flow rate of 0.22 mL/min at 30°C.
(§2) All incubations were performed in duplicate, and data are presented as means. IC50 values (the concentration of inhibitor causing a 50% inhibition in enzyme activity) were obtained using percent activity versus log[I] concentration plots. Kinetic parameters were estimated by curve fitting using SigmaPlot (version 12.0, Systat Software, Inc.).

Data set [1] deals with T2, human recombinant cDNA-expressed CYP1A1 (Homo sapiens, UniProt P04798).
T2 construct: purchased Corning Gentest (Woburn, MA)
T2 sequence (P04798 1-512): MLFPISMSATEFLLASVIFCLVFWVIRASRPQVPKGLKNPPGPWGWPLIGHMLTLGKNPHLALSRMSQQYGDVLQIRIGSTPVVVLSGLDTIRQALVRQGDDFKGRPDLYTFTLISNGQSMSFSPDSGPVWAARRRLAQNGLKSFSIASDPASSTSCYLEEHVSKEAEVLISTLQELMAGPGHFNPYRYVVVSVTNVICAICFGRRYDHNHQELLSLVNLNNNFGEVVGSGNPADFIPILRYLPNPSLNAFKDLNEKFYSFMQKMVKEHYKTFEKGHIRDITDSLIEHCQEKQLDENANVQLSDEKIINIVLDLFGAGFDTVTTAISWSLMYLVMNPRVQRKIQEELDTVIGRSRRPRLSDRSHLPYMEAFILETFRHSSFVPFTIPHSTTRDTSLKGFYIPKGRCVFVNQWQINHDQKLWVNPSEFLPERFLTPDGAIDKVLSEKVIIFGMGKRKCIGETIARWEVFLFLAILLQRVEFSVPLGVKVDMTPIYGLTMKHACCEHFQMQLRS
In words: Inhibition of phenacetin O-deethylation by human recombinant cDNA-expressed CYP1A1. It is filed as biochemical. Here is the method: (§3) To confirm the selective inhibition of CYP1A by bakuchicin, 10 pmol of human recombinant cDNA-expressed CYP1A1 and CYP1A2 was incubated with bakuchicin at 0.1–50 μM and NGS for 60 min at 37°C after the addition of 80 μM phenacetin as a selective CYP1A substrate. Those were terminated by adding 100 μL acetonitrile containing 0.1% formic acid and 2.5 μL of internal standard solution (5 μM reserpine) in methanol. After mixing and centrifuging at 13,000 ×g for 12 min, a 5 μL aliquot was injected onto a C18 column for LC-MS/MS analysis. CYP1A1 and CYP1A2 activities were determined by phenacetin O-deethylation. The inhibition patterns of bakuchicin on CYP1A in human recombinant cDNA-expressed CYP1A1 and CYP1A2 were confirmed by Michaelis-Menten and secondary plot.
as §1, §2

Data set [2] concerns the target T3, human recombinant cDNA-expressed CYP1A2 (Homo sapiens, UniProt P05177).
T3 construct: purchased Corning Gentest (Woburn, MA)
T3 sequence (P05177 1-516): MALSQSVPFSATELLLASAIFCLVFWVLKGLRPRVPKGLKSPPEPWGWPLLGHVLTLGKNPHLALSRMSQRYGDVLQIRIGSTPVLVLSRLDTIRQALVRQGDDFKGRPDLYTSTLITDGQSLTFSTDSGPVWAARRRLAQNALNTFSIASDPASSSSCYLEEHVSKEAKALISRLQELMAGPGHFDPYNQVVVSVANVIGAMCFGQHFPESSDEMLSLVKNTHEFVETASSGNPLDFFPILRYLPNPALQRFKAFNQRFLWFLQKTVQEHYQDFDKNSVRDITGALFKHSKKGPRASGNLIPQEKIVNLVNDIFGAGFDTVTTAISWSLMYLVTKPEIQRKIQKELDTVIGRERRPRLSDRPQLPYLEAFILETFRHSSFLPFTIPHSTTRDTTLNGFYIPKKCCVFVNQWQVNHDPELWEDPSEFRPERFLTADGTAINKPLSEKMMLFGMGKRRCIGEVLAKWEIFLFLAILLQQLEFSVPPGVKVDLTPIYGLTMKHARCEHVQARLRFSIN
In words: Inhibition of phenacetin O-deethylation by human recombinant cDNA-expressed CYP1A2. In kind it is biochemical. The method, then:
as §3, §1, §2

Consider `O=c1ccc2c(ccc3ccoc32)o1` [Bakuchicin], for which, on CYP1A (human, pooled human liver microsomes, pH 7.4, probe phenacetin (O-deethylation), phenacetin 20, 40, 80 μM, 60 min incubation), affinity was put at a Ki at 60 min of 90 nM. In addition, the “inhibition mechanism on CYP1A in HLMs” value on CYP1A is on record as “reversible competitive inhibitor”; on CYP1A (listed as bakuchicin), “competitive inhibition; also recorded: reversible inhibitor”. In addition, the IC50 in data set [1] (recombinant CYP1A1, 80 μM phenacetin, 60 min, read-out: IC50, CYP1A1-catalyzed phenacetin O-deethylase activity) was found to be 200 nM; in data set [2] (recombinant CYP1A2, 80 μM phenacetin, 60 min, read-out: IC50, CYP1A2-catalyzed phenacetin O-deethylase activity), 1400 nM. In addition, the “inhibition mode on CYP1A1” value in data set [1] (recombinant CYP1A1, Lineweaver-Burk plot) is listed as “competitive inhibitor; also recorded: competitive inhibition”. Besides, the inhibition constant (Ki) stood at 110 nM in data set [1] (recombinant CYP1A1, phenacetin 20, 40, 80 μM, 60 min, read-out: Ki on CYP1A1 (secondary plot)) and 320 nM in data set [2] (recombinant CYP1A2, phenacetin 20, 40, 80 μM, 60 min, read-out: Ki on CYP1A2 (secondary plot)). Further, the “inhibition mode on CYP1A2” value in data set [2] (recombinant CYP1A2, Lineweaver-Burk plot) is recorded as “competitive inhibitor; also recorded: competitive inhibition”. For the same molecule, in data set [2] (recombinant enzymes), the “Ki on CYP1A2 relative to Ki on CYP1A1” value worked out at 3 fold. The “IC50 for CYP1A2 relative to CYP1A1” value in data set [2] (recombinant enzymes, CYP1A2 IC50 higher than CYP1A1 IC50) was determined as 7 fold.
